Experimental findings from patent EP0679399B1, “Phosphate diesters for treatment of epidermis proliferative diseases” (Senju Pharmaceutical Co., Ltd., priority 1994, dated 1995) are described below.

Data set [1] deals with mouse model of psoriasis vulgaris. In words: Mouse model of psoriasis vulgaris induced by TPA (ear epidermal weight gain, ear swelling rate). The class given is in vivo, ddY mice. To be noted: for inhibited the epidermal weight gain: relative to control; for Epidermal weight % gain: right vs left auricle, 72 hours after TPA, mean±SD (n=6-9). How it is done: The efficacy of EPC-K was assayed in the mouse model of psoriasis vulgaris using 12-o-tetradecanoylphorbol-13-acetate (briefly TPA).
Male 6-week-old ddY mice purchased from SLC Japan were used.
The entire external surface of the right auricle of each mouse was coated with 20 nmol/40 µl of TPA/methanol, and after 6, 24, 48 and 72 hours, the thickness of the auricle was measured with a dial thickness gauge. The ear swelling rate (%) was then calculated. At 72 hours after application of TPA, the mouse was sacrificed and the right and left auricles were respectively punched out with a 8 mm (dia.) punch. The epidermis of each auricle was peeled off and the epidermal weight was determined. Then, the % gain in epidermal weight of the right auricle relative to the left auricle was calculated.
Each test substance was extemporaneously blended with TPA-methanol and 40 µl of the mixture was applied to the external surface of the right auricle of each mouse. Then, a methanolic solution of the corresponding test substance, 40 µl, was applied once daily for 2 days.
Dunnet's test was used for statistical efficacy evaluation of the test substance.

Data set [2] is described as follows: Acute toxicity (LD50) in rats. To be noted: rat, in vivo. The procedure:
The present compounds are very safe with extremely low toxic potential and can, therefore, be used with advantage for the purposes of this invention. For example, the LD50 of L-ascorbyl DL-α-tocopheryl phosphate potassium (abbreviation: EPC-K): is ≥ 5 g/kg p.o. (rats) and ≥ 100 mg/kg i.v. (rats).

The structures appear in SMILES notation.

For orientation: LD50 means the dose at which mortality reaches 50%.

As for `Cc1c(C)c2c(c(C)c1OP(=O)(O)OC1=C(O)[C@@H]([C@@H](O)CO)OC1=O)CCC(C)(CCCC(C)CCCC(C)CCCC(C)C)O2` (mixture of isomers) [EPC-K, L-ascorbyl DL-α-tocopheryl phosphate potassium], the “inhibited the epidermal weight gain” value in data set [1] (500 µg/auricle) was 52.8%; in data set [1] (1000 µg/auricle), 80.3%. The “Epidermal weight % gain” value in data set [1] (500 µg/auricle) was found to be 52.4±40.1 %; in data set [1] (1000 µg/auricle) it was 21.8±17.4 %. The ear swelling rate result in data set [1] (1000 µg/auricle, compared with 25 µg betamethasone valerate (Fig. 1)) is given as “more potent inhibitory effect”; in data set [1] (500 and 1000 µg/auricle, 6, 24, 48 and 72 hours after TPA (Fig. 1)), “dose-dependent inhibitory effects at all points of time”. In addition, the LD50 is at least 100 mg/kg in data set [2] (iv) and at least 5000 mg/kg in data set [2] (po).

Turning to `CCCCC(=O)O[C@]1(C(=O)CO)[C@@H](C)C[C@H]2[C@@H]3CCC4=CC(=O)C=C[C@]4(C)[C@@]3(F)[C@@H](O)C[C@@]21C` [Betamethasone valerate, reference compound], in data set [1] (25 µg/auricle), the “body weight (side effect)” value is “induced body weight loss”, the “inhibited the epidermal weight gain” value came out at 81.1% and the “Epidermal weight % gain” value was found to be 21.0±19.9 %. In data set [1] (25 µg/auricle, 6, 24, 48 and 72 hours after TPA (Fig. 1)), the ear swelling rate result is “fairly potent efficacy but its effect had been attenuated by 24 and 48 hours after application”.
